This assay concerns the target hQC (Homo sapiens, UniProt Q16769). As to the kind of experiment: Inhibitor assay for glutaminyl cyclase activity (fluorometric, H-Gln-βNA / H-Gln-AMC). The format is biochemical. Particulars: read-out: IC50. The essentials: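 Ki values came from fitting progress curves to a competitive inhibition model; rapid screens used 4 mM inhibitor with substrate at KM. QC activity was read at 30 °C via auxiliary pyroglutamyl aminopeptidase releasing βNA (0.2 mM H-Gln-βNA, 0.2 M Tris pH 8.0, 20 mM EDTA) or AMC (0.05 M Tris pH 8.0, 5 mM EDTA).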

Usually IC50 stands for the concentration that inhibits the measured activity by half.

Each structure is given as a SMILES string.

hQC, sequence (Q16769 29-361): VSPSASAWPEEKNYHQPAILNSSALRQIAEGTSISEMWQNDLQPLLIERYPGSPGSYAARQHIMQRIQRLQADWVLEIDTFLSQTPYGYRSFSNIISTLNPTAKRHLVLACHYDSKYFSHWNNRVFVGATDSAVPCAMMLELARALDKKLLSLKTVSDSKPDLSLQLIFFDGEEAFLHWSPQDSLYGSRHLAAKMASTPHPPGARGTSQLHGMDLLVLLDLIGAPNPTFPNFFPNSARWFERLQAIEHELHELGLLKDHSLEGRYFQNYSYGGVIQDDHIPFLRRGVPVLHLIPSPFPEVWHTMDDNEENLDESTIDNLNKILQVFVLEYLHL

Consider `CCC1=C(O)C(=O)N(CCCn2ccnc2)C1C(O)CO` (centres unmarked) [Compound 225, 5-(1,2-Dihydroxy-ethyl)-4-ethyl-3-hydroxy-1-(3-imidazol-1-yl-propyl)-1,5-dihydro-pyrrol-2-one], for which the IC50 was found to be 40 nM.
As to `O=C(C1=C(O)C(=O)N(c2ccc3[nH]cnc3c2)C1c1c[nH]cn1)C1CCCCC1` (centres unmarked) [Compound 255, 1-(1H-Benzoimidazol-5-yl)-4-cyclohexanecarbonyl-3-hydroxy-5-(1H-imidazol-4-yl)-1,5-dihydro-pyrrol-2-one], the IC50 is 2470 nM.
`COc1ccc(C2C(C(C)C)=C(O)C(=O)N2CCCn2ccnc2)cc1` (centres unmarked) [Compound 59, 3-Hydroxy-1-(3-imidazol-1-yl-propyl)-4-isopropyl-5-(4-methoxy-phenyl)-1,5-dihydro-pyrrol-2-one]: the half-maximal inhibitory concentration (IC50) was 400 nM.
In the case of `CCCCCC1=C(O)C(=O)N(CCCn2ccnc2)C1c1c[nH]c2cc(C)ccc12` (centres unmarked) [Compound 202, 3-Hydroxy-1-(3-imidazol-1-yl-propyl)-5-(6-methyl-1H-indol-3-yl)-4-pentyl-1,5-dihydro-pyrrol-2-one], the IC50 was 40 nM.
In the case of `CC1=C(O)C(=O)N(c2ccc3[nH]cnc3c2)C1c1nccs1` (centres unmarked) [Compound 326, 1-(1H-Benzoimidazol-5-yl)-3-hydroxy-4-methyl-5-thiazol-2-yl-1,5-dihydro-pyrrol-2-one] it was 3280 nM; in that of `CCCC(=O)C1=C(O)C(=O)N(c2ccc3[nH]cnc3c2)C1c1ccsc1` (centres unmarked) [Compound 424, 1-(1H-Benzoimidazol-5-yl)-4-butyryl-3-hydroxy-5-thiophen-3-yl-1,5-dihydro-pyrrol-2-one], 850 nM.
Next, `CC(C)C1=C(O)C(=O)N(c2ccc3[nH]cnc3c2)C1C1COC(C)(C)O1` (centres unmarked) [Compound 300, 1-(1H-Benzoimidazol-5-yl)-5-(2,2-dimethyl-[1,3]dioxolan-4-yl)-3-hydroxy-4-isopropyl-1,5-dihydro-pyrrol-2-one]: 4 nM; `CC1=C(O)C(=O)N(c2ccc3[nH]cnc3c2)C1c1ccnc2ccccc12` (centres unmarked) [Compound 270, 1-(1H-Benzoimidazol-5-yl)-3-hydroxy-4-methyl-5-quinolin-4-yl-1,5-dihydro-pyrrol-2-one]: 1480 nM; `CCC/C=C/C1C(c2cccc(O)c2)=C(O)C(=O)N1CCCn1ccnc1` (centres unmarked) [Compound 6, 3-Hydroxy-4-(3-hydroxy-phenyl)-1-(3-imidazol-1-yl-propyl)-5-(pent-1-enyl)-1,5-dihydro-pyrrol-2-one]: 5800 nM.
For `CCCC1=C(O)C(=O)N(c2ccc3[nH]cnc3c2)C1c1ccc(C(=O)O)o1` (centres unmarked) [Compound 292, 5-[1-(1H-Benzoimidazol-5-yl)-4-hydroxy-5-oxo-3-propyl-2,5-dihydro-1H-pyrrol-2-yl]-furan-2-carboxylic acid], the IC50 was 9940 nM.
Regarding `Cc1ccc2c(C3C(c4ccc(O)cc4)=C(O)C(=O)N3CCCn3ccnc3)c[nH]c2c1` (centres unmarked) [Compound 165, 3-Hydroxy-4-(4-hydroxy-phenyl)-1-(3-imidazol-1-yl-propyl)-5-(6-methyl-1H-indol-3-yl)-1,5-dihydro-pyrrol-2-one], the IC50 is 40 nM.
With `O=C1C(O)=C(c2cccc(O)c2)C(c2cc[nH]n2)N1CCCn1ccnc1` (centres unmarked) [Compound 8, 3-Hydroxy-4-(3-hydroxy-phenyl)-1-(3-imidazol-1-yl-propyl)-5-(1H-pyrazol-3-yl)-1,5-dihydro-pyrrol-2-one], the 50% inhibitory concentration (IC50) came to 9400 nM.
Turning to `CC1=C(O)C(=O)N(c2ccc3[nH]cnc3c2)C1c1cc(F)cc(F)c1F` (centres unmarked) [Compound 407, 1-(1H-Benzoimidazol-5-yl)-3-hydroxy-4-methyl-5-(2,3,5-trifluoro-phenyl)-1,5-dihydro-pyrrol-2-one], the IC50 is 220 nM.
`CCCCCC1=C(O)C(=O)N(CCCn2ccnc2)C1c1ccccc1O` (centres unmarked) [Compound 194, 3-Hydroxy-5-(2-hydroxy-phenyl)-1-(3-imidazol-1-yl-propyl)-4-pentyl-1,5-dihydro-pyrrol-2-one]: the IC50 was determined as 40 nM.
